According to US9221809B2 (MERCK SHARP & DOHME CORP., priority 2011, dated 2015):
Structures can show the parent of a compound that is named as a salt.

Molecular target: IRAK4 (Homo sapiens (Human), UniProt Q9NWZ3)
Assay: IRAK4 kinase activity, IMAP fluorescence polarization assay
Type: biochemical
Settings: 100 μM ATP, 0.5 nM GST tagged IRAK4; read-out: IRAK4 IC50
Summary of the method: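 Fluorescence polarization (IMAP nanoparticle binding of phosphopeptide) reports activity after a 30 min, 25 °C reaction. Conditions: 100 μM ATP, 0.5 nM GST-IRAK4, 100 nM fluorescent peptide, 10 mM Tris pH 7.2, 1 mM MgCl2, 1 mM DTT, 0.01% Tween 20.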

Chain of IRAK4 (Q9NWZ3 whole entry): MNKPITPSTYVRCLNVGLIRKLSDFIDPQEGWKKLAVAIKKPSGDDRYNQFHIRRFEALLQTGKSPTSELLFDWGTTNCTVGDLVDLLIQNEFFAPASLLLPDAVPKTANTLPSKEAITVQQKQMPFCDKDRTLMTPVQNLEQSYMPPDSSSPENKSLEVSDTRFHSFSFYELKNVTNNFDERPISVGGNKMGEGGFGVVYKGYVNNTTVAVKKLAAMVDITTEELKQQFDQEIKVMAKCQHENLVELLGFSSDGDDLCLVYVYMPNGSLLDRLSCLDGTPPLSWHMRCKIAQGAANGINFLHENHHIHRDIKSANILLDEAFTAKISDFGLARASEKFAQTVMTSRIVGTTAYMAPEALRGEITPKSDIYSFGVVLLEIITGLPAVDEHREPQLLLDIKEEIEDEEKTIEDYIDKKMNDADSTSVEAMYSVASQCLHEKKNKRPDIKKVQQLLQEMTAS

SMILES | IC50
CS(=O)(=O)N1CCC(Nc2nc(N[C@@H]3C[C@H](CO)[C@@H](O)[C@H]3O)c(-c3nc4ccccc4s3)c(=O)[nH]2)CC1 [Example 10, 5-(Benzo[d]thiazol-2-yl)-6-((1R,2S,3R,4R)-2,3-dihydroxy-4-(hydroxymethyl)cyclopentylamino)-2-(1-(methylsulfonyl)piperidin-4-ylamino)pyrimidin-4(3H)-one.HCl] | 545 nM
O=c1[nH]c(N[C@@H]2CCCNC2)nc(N[C@@H]2C[C@H](CO)[C@@H](O)[C@H]2O)c1-c1nc2ccccc2s1 [Example 38, 5-(Benzo[d]thiazol-2-yl)-6-(((1R,2S,3R,4R)-2,3-dihydroxy-4-(hydroxymethyl)cyclopentyl)amino)-2-((R)-piperidin-3-ylamino)pyrimidin-4(3H)-one.HCl] | 5120 nM
N#Cc1ccc2sc(-c3c(N[C@@H]4CCCNC4)nc(N4CCOCC4)[nH]c3=O)nc2c1 [Example 348, 2-[2-(morpholin-4-yl)-6-oxo-4-[[(3R)-piperidin-3-yl]amino]-1,6-dihydropyrimidin-5-yl]-1,3-benzothiazole-5-carbonitrile] | 5 nM
CC1CCC(Nc2nc(N3CCOCC3)[nH]c(=O)c2-c2ccc3ccccc3n2)CN1 (centres unmarked) [Example 107, 6-((6-methylpiperidin-3-yl)amino)-2-morpholino-5-(quinolin-2-yl)pyrimidin-4(3H)-one.HCl] | 91 nM
NCCNc1cccc2sc(-c3c(N[C@@H]4CCCNC4)nc(N4CCOCC4)[nH]c3=O)nc12 [Example 356, 5-[4-[(2-aminoethyl)amino]-1,3-benzothiazol-2-yl]-2-(morpholin-4-yl)-6-[[(3R)-piperidin-3-yl]amino]-3,4-dihydropyrimidin-4-one] | 16 nM
Cc1cccc(-c2c(N[C@@H]3CCCNC3)nc(N3CCOCC3)[nH]c2=O)n1 [Example 109, (R)-5-(6-methylpyridin-2-yl)-2-morpholino-6-(piperidin-3-ylamino)pyrimidin-4(3H)-one] | 1470 nM
NC1CCCC(Nc2nc(N3CCOCC3)[nH]c(=O)c2-c2nc3ccccc3s2)C1 (centres unmarked) [Example 90, 6-(3-Aminocyclohexylamino)-5-(benzo[d]thiazol-2-yl)-2-morpholinopyrimidin-4(3H)-one.HCl] | 258 nM
CC(C)(C)c1ccc2sc(-c3c(N[C@@H]4CCCNC4)nc(N4CCOCC4)[nH]c3=O)nc2c1 [Example 342, (R)-5-(5-tert-butylbenzo[d]thiazol-2-yl)-2-morpholino-6-(piperidin-3-ylamino)pyrimidin-4(3H)-one] | 1300 nM

Same assay, conditions: 100 μM ATP; read-out: IC50

SMILES | IC50
O=c1[nH]c(N[C@H]2c3ccccc3C[C@H]2O)nc(N[C@@H]2CCCNC2)c1-c1nc2ccccc2s1 [Example 298, 5-(1,3-benzothdazol-2-yl)-2-[[(1S,2R)-2-hydroxy-2,3-dihydro-1H-inden-1-yl]amino]-6-[[(3R)-piperidin-3-yl]amino]pyrimidin-4-ol; formic acid] | 2500 nM
N#Cc1ccnc(-c2c(N[C@@H]3CCCNC3)nc(N3CCOCC3)[nH]c2=O)c1 [Example 222, (R)-2-(2-morpholino-6-oxo-4-(piperidin-3-ylamino)-1,6-dihydropyrimidin-5-yl)isonicotinonitrile] | 5620 nM
CN(C)CCNc1nc(N2CCOCC2)[nH]c(=O)c1-c1nc2ccccc2s1 [Example 260, 5-(1,3-benzothiazol-2-yl)-6-[[2-(dimethylamino)ethyl]amino]-2-(morpholin-4-yl)-3,4-dihydropyrimidin-4-one] | 1600 nM
O=c1[nH]c(N2CCOCC2)nc(NC(CO)CO)c1-c1nc2ccccc2s1 [Example 270, 5-(benzo[d]thiazol-2-yl)-6-(1,3-dihydroxy-propan-2-ylamino)-2-morpholinopyrimidin-4(3H)-one] | 110 nM
O=c1[nH]c(N2CCOCC2)nc(NCCNCCO)c1-c1nc2ccccc2s1 [Example 251, 5-(benzo[d]thiazol-2-yl)-6-(2-(2-hydroxyethyl-amino)ethylamino)-2-morpholino-pyrimidin-4(3H)-one] | 640 nM
CC(C)N1CCC(c2nc(N[C@@H]3CCCNC3)c(-c3nc4ccccc4s3)c(=O)[nH]2)CC1 [Example 228, (R)-5-(1,3-benzothiazol-2-yl)-6-[[(3R)-piperidin-3-yl]amino]-2-[1-(propan-2-yl)piperidin-4-yl]-3,4-dihydro-pyrimidin-4-one] | 660 nM
O=c1[nH]c(N2CCOCC2)nc(NCC(O)CO)c1-c1ccc2ccccc2n1 (centres unmarked) [Example 281, 6-[(2,3-dihydroxypropyl)amino]-2-(morpholin-4-yl)-5-(quinolin-2-yl)-3,4-dihydropyrimidin-4-one] | 1700 nM

Same assay, conditions: 100 μM ATP; read-out: IRAK4 IC50

SMILES | IC50
COC1CCN(c2nc(N[C@@H]3CCCNC3)c(-c3ccc4ccccc4n3)c(=O)[nH]2)C1 (stereo partly drawn) [Example 186, 2-(3-methoxypyrrolidin-1-yl)-6-((R)-piperidin-3-ylamino)-5-(quinolin-2-yl)pyrimidin-4(3H)-one] | 26 nM
Cn1cc(N2CCN(c3nc(N[C@@H]4CCCNC4)c(-c4nc5ccccc5s4)c(=O)[nH]3)CC2)cn1 [Example 159, (R)-5-(benzo[d]thiazol-2-yl)-2-(4-(1-methyl-1H-pyrazol-4-yl)piperazin-1-yl)-6-(piperidin-3-ylamino)pyrimidin-4(3H)-one] | 20 nM
CC1CN(c2nc(N[C@@H]3CCCNC3)c(-c3nc4ccccc4s3)c(=O)[nH]2)CCO1 (stereo partly drawn) [Example 126, 5-(benzo[d]thiazol-2-yl)-2-(2-methylmorpholino)-6-((R)-piperidin-3-ylamino)pyrimidin-4(3H)-one] | 97 nM
O=c1[nH]c(N2CCN(c3cccc(Cl)n3)CC2)nc(N[C@@H]2CCCNC2)c1-c1nc2ccccc2s1 [Example 137, (R)-5-(benzo[d]thiazol-2-yl)-2-(4-(6-chloropyridin-2-yl)piperazin-1-yl)-6-(piperidin-3-ylamino)pyrimidin-4(3H)-one] | 25 nM
COc1ccnc(N2CCN(c3nc(N[C@@H]4CCCNC4)c(-c4nc5ccccc5s4)c(=O)[nH]3)CC2)c1 [Example 142, (R)-5-(benzo[d]thiazol-2-yl)-2-(4-(4-methoxypyridin-2-yl)piperazin-1-yl)-6-(piperidin-3-ylamino)pyrimidin-4(3H)-one] | 6 nM
O=c1[nH]c(N2CCN(c3nnc(C4CC4)o3)CC2)nc(N[C@@H]2CCCNC2)c1-c1nc2ccccc2s1 [Example 162, (R)-5-(benzo[d]thiazol-2-yl)-2-(4-(5-cyclopropyl-1,3,4-oxadiazol-2-yl)piperazin-1-yl)-6-(piperidin-3-ylamino)pyrimidin-4(3H)-one] | 27 nM

Same assay, conditions: unit inferred; 100 μM ATP; read-out: IRAK4 IC50

SMILES | IC50
Cn1cc(C2CCN(c3nc(N[C@@H]4C[C@H](CO)[C@@H](O)[C@H]4O)c(-c4nc5ccccc5s4)c(=O)[nH]3)CC2)nn1 [Example 73, 5-(benzo[d]thiazol-2-yl)-6-((1R,2S,3R,4R)-2,3-dihydroxy-4-(hydroxymethyl)cyclopentylamino)-2-(4-(1-methyl-1H-1,2,3-triazol-4-yl)piperidin-1-yl)pyrimidin-4(3H)-one] | 19.4 nM
O=c1[nH]c(N2CCC(c3ccncc3)CC2)nc(N[C@@H]2C[C@H](CO)[C@@H](O)[C@H]2O)c1-c1nc2ccccc2s1 [Example 72, 5-(benzo[d]thiazol-2-yl)-6-((1R,2S,3R,4R)-2,3-dihydroxy-4-(hydroxymethyl)cyclopentylamino)-2-(4-(pyridin-4-yl)piperidin-1-yl)pyrimidin-4(3H)-one] | 19 nM
